Assay results reported in ChEMBL document CHEMBL1201862, “PubChem BioAssay data set” (2004).
Activity calls are given as the source filed them.

Experiments:
[1] = cytotoxicity in KRAS-transformed pancreatic duct cells, primary screen, cell-based, fluorescence, HTS (AID 431); assay type: functional; conditions: Homo sapiens;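 further: cell line used: HPDE-C7K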
[2] = cytotoxicity in HPDE-C7 cells, cell-based, fluorescence, HTS (AID 430); assay type: functional; conditions: Homo sapiens
[3] = growth suppression of beta-catenin-knockout colon cells, dose response, cell-based, HCT116, human colon tumor (AID 1045); assay type: functional;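 further: HCT116 colon tumor cells with beta catenin knocked out; cells exposed to compound for 60 hours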
[4] = growth suppression of PTEN-null colon cells, dose response, cell-based, HCT116 PTEN knockout (AID 1047); assay type: functional;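 further: HCT116 colon tumor cells with PTEN knocked out; cells exposed to compound for 60 hours before readout; potency for loss of cell viability measured by luminescence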
[5] = cells; assay type: functional, cell-based
[6] = cells; assay type: functional, cell-based; remark: listed apart in the source
[7] = cells; assay type: functional, cell-based; conditions: HEK-CNG
[8] = target: T1, Galanin receptor type 3 (Homo sapiens, UniProt O60755); assay: Fluorescence-based cell-based primary high throughput dose response assay to identify antagonists of the Galanin Receptor 3 (GalR3).; assay type: functional
T1 sequence (O60755 whole entry): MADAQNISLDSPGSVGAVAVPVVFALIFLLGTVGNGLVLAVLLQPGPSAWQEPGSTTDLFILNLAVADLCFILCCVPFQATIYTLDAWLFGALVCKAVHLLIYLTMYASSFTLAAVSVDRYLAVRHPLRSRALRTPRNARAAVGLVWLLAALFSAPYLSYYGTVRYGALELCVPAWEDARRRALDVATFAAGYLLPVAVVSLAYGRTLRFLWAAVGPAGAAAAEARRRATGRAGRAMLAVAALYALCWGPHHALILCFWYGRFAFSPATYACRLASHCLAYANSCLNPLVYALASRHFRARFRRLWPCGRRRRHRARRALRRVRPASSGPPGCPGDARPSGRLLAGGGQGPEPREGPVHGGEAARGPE

[9] = target: T2, Fatty acid synthase (Homo sapiens, UniProt P49327); assay: FAS thioesterase domain inhibitors, dose response, biochemical, kinetic fluorescence intensity (AID 624326); assay type: functional;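 further: rate of fluorescence rise from hydrolysis of a fluorogenic O-methyl fluorescein ester substrate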
T2 sequence (P49327 whole entry, the tested form may be a part): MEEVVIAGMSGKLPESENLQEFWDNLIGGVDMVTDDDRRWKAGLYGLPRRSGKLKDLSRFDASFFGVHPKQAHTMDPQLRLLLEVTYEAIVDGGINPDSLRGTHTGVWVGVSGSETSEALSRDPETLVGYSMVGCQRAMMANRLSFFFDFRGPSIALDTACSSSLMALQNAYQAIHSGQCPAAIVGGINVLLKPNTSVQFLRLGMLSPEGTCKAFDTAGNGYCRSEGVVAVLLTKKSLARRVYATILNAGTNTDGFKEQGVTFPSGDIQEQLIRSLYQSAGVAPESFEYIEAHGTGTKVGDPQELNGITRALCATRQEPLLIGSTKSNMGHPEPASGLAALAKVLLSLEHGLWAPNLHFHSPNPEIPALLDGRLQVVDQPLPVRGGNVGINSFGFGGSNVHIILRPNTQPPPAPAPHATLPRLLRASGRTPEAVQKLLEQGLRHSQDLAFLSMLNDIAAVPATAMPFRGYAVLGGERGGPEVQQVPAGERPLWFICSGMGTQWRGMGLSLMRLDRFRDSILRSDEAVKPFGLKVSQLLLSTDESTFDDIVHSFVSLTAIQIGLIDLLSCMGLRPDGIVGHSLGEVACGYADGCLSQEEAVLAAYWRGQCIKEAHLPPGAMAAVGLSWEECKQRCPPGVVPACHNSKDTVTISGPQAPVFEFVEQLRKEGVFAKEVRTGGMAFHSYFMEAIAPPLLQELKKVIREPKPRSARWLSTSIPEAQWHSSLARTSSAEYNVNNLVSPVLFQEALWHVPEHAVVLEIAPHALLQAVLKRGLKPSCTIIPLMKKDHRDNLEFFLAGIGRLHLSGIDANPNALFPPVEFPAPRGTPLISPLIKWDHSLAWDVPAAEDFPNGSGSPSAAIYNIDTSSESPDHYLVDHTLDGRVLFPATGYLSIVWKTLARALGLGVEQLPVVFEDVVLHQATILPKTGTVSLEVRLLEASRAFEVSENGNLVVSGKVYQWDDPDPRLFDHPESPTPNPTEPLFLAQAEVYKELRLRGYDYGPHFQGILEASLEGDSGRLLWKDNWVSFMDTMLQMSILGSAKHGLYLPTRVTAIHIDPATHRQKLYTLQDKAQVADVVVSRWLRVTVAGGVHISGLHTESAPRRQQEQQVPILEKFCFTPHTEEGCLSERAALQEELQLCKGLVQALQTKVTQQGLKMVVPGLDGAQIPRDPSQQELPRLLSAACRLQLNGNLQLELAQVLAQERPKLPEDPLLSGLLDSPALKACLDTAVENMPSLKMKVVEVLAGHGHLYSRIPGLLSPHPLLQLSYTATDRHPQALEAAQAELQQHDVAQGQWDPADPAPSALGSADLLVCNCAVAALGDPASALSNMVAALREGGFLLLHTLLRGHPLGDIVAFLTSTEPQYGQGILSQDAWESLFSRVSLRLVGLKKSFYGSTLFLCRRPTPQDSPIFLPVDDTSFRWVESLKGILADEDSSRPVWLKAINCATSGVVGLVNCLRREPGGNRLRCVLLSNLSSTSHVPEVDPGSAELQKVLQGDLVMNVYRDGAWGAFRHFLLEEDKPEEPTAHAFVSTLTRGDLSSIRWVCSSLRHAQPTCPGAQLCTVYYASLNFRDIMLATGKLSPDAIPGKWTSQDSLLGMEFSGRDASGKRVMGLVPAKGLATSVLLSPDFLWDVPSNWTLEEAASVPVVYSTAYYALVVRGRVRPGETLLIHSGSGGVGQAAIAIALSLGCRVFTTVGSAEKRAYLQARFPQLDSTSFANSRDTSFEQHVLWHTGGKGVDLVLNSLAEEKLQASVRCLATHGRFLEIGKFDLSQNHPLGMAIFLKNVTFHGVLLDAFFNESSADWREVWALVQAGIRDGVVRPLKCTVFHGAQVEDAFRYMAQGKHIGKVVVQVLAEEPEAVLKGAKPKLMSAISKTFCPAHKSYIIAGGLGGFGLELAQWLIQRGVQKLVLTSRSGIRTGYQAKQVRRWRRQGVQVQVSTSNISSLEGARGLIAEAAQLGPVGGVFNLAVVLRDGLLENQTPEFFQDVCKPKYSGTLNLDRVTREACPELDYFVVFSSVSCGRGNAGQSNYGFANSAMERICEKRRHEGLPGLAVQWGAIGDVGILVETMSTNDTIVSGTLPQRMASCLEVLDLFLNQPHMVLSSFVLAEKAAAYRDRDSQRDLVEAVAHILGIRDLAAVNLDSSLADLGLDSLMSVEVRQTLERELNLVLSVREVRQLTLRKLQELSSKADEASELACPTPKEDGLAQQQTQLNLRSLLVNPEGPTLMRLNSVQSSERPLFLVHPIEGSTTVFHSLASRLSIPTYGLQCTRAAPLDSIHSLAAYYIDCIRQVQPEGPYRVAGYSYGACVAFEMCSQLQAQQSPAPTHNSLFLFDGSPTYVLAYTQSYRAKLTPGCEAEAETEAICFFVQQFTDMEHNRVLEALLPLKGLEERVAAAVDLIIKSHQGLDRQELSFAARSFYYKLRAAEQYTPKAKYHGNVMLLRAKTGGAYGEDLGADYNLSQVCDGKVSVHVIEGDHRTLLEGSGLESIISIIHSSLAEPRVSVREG

[10] = target: T3, Heat shock factor protein 1 (Mus musculus, UniProt P38532); assay: inhibition of MG132-induced HSE-luciferase signal, confirmation, cell-based, NIH3T3, luminescence, dose retest (AID 2382); assay type: functional;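 further: NIH3T3 fibroblasts with HSF1-driven luciferase reporter stressed by proteasome inhibitor MG132; luminescence from HSF1-driven luciferase expression after 8 hours of MG132 stress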
T3 sequence (P38532 whole entry): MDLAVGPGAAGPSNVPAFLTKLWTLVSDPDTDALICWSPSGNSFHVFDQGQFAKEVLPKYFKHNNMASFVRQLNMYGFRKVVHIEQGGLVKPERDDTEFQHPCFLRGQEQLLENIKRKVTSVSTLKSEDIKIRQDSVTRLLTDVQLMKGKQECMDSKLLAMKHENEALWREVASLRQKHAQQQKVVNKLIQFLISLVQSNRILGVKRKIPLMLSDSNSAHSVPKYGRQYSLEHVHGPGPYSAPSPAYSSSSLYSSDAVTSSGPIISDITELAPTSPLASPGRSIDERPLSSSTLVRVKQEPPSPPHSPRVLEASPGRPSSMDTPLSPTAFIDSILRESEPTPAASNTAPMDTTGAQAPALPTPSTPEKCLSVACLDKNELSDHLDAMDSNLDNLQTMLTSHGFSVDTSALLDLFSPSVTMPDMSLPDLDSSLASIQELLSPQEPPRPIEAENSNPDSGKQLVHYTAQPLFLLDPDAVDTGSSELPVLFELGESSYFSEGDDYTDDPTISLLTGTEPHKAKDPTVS

[11] = target: Nonstructural protein 1 (Influenza A virus, UniProt Q194T2); assay type: functional, Influenza A virus (A/California/07/2009(H1N1))
Sequence of Nonstructural protein 1 (Q194T2 whole entry, the tested form may be a part): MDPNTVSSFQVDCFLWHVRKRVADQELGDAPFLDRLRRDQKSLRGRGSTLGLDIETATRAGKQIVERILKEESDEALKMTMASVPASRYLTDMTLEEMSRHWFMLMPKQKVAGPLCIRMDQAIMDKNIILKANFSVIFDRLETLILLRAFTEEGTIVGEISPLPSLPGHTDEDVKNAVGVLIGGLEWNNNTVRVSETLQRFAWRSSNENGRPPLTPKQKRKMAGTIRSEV

[12] = target: T2, Fatty acid synthase; assay: FAS thioesterase domain inhibitors, dose response, biochemical, endpoint fluorescence intensity, uHTS hits (AID 624327); assay type: functional;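 further: fluorescence from hydrolysis of an O-methyl fluorescein acyl ester substrate by the enzyme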
[13] = target: T4, Adenosylmethionine-8-amino-7-oxononanoate aminotransferase (Mycobacterium tuberculosis, UniProt P9WQ81); assay: Mycobacterium tuberculosis BioA enzyme inhibitor Measured in Biochemical System Using Plate Reader - 2163-02_Inhibitor_Dose_CherryPick_Activity.; assay type: functional, Mycobacterium tuberculosis UT205
T4 sequence (P9WQ81 whole entry): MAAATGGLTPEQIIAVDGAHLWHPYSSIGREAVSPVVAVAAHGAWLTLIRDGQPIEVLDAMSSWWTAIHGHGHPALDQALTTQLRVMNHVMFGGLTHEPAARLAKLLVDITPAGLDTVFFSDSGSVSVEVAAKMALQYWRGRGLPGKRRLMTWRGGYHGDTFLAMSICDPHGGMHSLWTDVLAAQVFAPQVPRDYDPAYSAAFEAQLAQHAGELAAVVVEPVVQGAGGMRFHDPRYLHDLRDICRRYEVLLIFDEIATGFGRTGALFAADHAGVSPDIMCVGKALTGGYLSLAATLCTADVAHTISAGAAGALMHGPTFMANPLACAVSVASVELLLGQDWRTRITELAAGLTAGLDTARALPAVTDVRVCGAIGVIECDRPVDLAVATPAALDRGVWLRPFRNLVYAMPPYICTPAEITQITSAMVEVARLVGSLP

[14] = target: T5, CAAX prenyl protease 2 (Saccharomyces cerevisiae S288c, UniProt Q03530); assay type: biochemical
T5 sequence (Q03530 whole entry): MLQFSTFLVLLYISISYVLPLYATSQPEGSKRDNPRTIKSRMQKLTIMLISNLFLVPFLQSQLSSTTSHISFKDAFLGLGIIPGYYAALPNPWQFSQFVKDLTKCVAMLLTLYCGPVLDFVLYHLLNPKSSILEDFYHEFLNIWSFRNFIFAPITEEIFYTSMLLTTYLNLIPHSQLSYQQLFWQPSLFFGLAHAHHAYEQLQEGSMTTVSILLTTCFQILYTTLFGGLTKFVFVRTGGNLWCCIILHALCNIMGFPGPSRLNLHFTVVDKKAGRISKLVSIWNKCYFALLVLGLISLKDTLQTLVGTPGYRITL

[15] = C. albicans growth with fluconazole, confirmation, fluorescence, retest (AID 2467); assay type: functional, cell-based
[16] = system: HEK293; assay: inhibitors of LMP1-driven NF-kB reporter, dose response, cell-based, HEK293, luciferase, cherry-pick (AID 588343); assay type: functional; conditions: Homo sapiens
[17] = target: T6, Replicative DNA helicase DnaB (Mycobacterium tuberculosis, UniProt P9WMR3); assay: DnaB intein splicing inhibitors, dose response, biochemical, cell-free fluorescence (AID 449749); assay type: functional
T6 sequence (P9WMR3 whole entry): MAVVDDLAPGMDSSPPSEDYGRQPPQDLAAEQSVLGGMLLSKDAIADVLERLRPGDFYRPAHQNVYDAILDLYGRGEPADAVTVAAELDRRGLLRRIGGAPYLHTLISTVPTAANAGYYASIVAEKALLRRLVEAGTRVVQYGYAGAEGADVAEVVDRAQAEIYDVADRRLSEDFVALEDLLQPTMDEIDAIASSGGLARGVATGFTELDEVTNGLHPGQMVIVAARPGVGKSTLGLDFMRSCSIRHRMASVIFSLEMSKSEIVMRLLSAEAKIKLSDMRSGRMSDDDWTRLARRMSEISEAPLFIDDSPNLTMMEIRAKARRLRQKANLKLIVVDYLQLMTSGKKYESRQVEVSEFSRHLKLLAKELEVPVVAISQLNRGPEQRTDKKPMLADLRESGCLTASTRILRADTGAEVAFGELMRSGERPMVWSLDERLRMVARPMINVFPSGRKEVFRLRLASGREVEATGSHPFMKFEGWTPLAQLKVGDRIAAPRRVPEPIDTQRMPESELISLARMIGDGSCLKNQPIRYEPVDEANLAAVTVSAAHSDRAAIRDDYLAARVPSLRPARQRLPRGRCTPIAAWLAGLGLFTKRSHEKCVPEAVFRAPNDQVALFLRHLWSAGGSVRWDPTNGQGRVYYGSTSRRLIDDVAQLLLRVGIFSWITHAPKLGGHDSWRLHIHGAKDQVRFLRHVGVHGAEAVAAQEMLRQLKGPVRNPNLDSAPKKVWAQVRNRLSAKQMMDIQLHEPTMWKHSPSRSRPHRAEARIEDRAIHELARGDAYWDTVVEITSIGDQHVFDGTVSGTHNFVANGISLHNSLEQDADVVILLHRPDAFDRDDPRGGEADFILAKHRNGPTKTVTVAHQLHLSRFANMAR

[18] = NIH-3T3 fibroblast cytotoxicity, dose response, cytotoxicity control, cell-based, fluorescence, Alamar Blue, secondary assay (AID 2327); assay type: functional;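 further: NIH-3T3 mouse fibroblasts cultured with fluconazole at 8 µg/mL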
[19] = target: T7, Protein RecA (Mycobacterium tuberculosis, UniProt P9WHJ3); assay: Fluorescence Cell-Free Homogeneous Dose Retest to Identify Inhibitors of RecA-Intein Splicing Activity. [Related pubchem assays (depositor defined):AID2097, AID2223, AID489010, AID492950]; assay type: functional
T7 sequence (P9WHJ3 whole entry): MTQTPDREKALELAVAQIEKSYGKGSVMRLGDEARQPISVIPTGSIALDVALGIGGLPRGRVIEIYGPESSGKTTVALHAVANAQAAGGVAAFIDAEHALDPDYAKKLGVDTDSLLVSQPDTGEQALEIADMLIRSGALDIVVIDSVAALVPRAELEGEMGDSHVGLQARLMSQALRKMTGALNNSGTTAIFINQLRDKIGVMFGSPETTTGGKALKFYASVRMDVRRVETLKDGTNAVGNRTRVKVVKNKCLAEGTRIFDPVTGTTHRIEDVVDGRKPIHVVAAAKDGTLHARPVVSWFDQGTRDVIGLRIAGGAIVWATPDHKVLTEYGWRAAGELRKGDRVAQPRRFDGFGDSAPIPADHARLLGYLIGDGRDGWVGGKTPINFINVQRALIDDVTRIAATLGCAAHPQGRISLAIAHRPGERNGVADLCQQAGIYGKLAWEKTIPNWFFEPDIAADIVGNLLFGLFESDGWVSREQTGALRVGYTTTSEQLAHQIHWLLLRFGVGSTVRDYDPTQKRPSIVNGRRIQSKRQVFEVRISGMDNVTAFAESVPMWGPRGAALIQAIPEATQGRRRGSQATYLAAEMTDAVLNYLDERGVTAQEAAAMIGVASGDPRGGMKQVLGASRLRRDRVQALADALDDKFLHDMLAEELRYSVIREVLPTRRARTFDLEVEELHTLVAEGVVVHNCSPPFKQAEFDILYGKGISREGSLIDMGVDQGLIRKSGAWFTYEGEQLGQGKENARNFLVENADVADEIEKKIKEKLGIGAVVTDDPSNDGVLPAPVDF

For `Cc1cc2oc3c(c(=O)c2cc1C)C(c1cccc(Br)c1)N(Cc1ccco1)C3=O` (stereo not drawn), the EC50 [1] was > 20 µM (not active), the EC50 [2] was > 20 µM (not active) and the EC50 [3] was 8.39 µM (active). The EC50 [4] was 9.43 µM (active).

In the case of `COc1ccc(N=C(S)Nc2ccccn2)c(OC)c1`, the EC50 [5] is reported as > 350 µM (not active) and the EC50 [6] is reported as 53.6 µM (active).

In the case of `O=C(NCCO)c1nsnc1NCCCl`, the EC50 [7] is reported as > 29.9 µM (inactive) and the IC50 [8] is reported as > 29.9 µM (inactive).

In the case of `COc1cc(/C=N/NC(=O)c2cncc(Br)c2)cc([N+](=O)[O-])c1O`, the IC50 [9] is reported as 9.66 µM (active), the EC50 [10] is reported as 0.977 µM (active) and the IC50 [11] is reported as 4.26 µM (active). For the same compound, the IC50 [12] was 18.7 µM (active).

With `O=C(c1ccccc1F)N1CC[C@@H]2[C@H](CO)Nc3ccc(Br)cc3[C@@H]21` the AC50 [13] was 1.81 µM (active).

With `CCOc1ccc(-c2c(C(=O)N/N=C/c3cccs3)nnn2-c2nonc2N)cc1` the AC50 [14] was 5.5 µM (active).

With `CCN(CC)c1ccc(/C=N/Nc2nc(C)cc(O)n2)c(O)c1` the EC50 [15] was 1.09 µM (active), the AC50 [16] was 1.75 µM (active) and the AC50 [17] was > 380 µM (inactive). For the same compound, the EC50 [18] was 3.13 µM (active), the EC50 [19] was 28 µM (active) and the EC50 [5] was 6.92 µM (active). For the same compound, the EC50 [6] was > 350 µM (not active).

In the case of `COc1cccc(/C=N/NC(=O)CNC(=O)C(c2ccccc2)c2ccccc2)c1O`, the EC50 [5] is reported as 30.6 µM (active) and the EC50 [6] is reported as > 350 µM (not active).
